# Measurements taken from patent publication US9085603B2, “Progesterone receptor antagonists” (Bayer Intellectual Property GmbH, priority 2010, dated 2015).
# pIC50: −log10 of the molar value.
# Molecular target: T1, human progesterone receptor B (Homo sapiens, UniProt P06401)
# T1 construct: expressed in transfected cells; host or cells: SK-N-MC human neuroblastoma cells, stably transfected with pRChPR-B-neo and pMMTV-LUC
# T1 sequence (P06401 1-933): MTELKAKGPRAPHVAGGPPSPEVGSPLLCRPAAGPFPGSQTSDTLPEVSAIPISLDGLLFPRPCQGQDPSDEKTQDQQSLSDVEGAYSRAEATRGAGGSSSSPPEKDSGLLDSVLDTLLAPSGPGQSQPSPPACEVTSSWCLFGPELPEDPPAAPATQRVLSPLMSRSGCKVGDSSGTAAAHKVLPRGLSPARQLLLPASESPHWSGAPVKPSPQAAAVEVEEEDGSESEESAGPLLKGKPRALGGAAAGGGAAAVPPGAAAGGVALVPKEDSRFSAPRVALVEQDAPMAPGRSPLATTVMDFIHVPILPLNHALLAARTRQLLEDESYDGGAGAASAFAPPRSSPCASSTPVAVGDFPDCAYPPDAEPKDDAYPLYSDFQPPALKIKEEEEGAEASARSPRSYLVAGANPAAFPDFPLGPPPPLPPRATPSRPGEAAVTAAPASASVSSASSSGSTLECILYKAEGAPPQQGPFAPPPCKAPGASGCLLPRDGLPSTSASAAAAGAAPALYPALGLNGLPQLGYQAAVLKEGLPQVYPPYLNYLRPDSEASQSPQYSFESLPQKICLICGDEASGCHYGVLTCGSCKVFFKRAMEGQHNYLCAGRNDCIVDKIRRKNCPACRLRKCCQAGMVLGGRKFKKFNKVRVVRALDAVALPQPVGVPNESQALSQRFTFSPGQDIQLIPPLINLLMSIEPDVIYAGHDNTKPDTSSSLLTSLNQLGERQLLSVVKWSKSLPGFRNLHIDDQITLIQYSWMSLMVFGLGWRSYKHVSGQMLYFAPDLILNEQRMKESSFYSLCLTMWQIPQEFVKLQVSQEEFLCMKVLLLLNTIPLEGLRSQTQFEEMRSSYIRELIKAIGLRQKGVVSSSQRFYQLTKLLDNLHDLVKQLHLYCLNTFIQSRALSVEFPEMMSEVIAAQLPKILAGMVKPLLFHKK
# Assay: Progesterone receptor antagonistic effect in stably transfected SK-N-MC cells, MTV-LUC reporter (PR-B)
# Format: cell-based
# Conditions: antagonism of 0.1 nmol/l promegestone, luciferase reporter, 24 hours
# Procedure: (§1) Progesterone Receptor Antagonistic Effect in Stable Transfectants of Human Neuroblastoma Cells (SK-N-MC cells) with the Human Progesterone A or Progesterone B Receptor and a MTV-LUC Reporter Construct
# (§2) SK-N-MC cells (human neuroblastoma cells), which have been stably transfected with plasmids which express the human progesterone receptor B (pRChPR-B-neo) or the human progesterone receptor A (pRChPR-A-neo) and a reporter construct (pMMTV-LUC), were incubated for 24 hours either in the absence (negative control) or in the presence of increasing amounts of the particular test compound (0.01 nmol/l, 0.1 nmol/l, 1 nmol/l, 10 nmol/l, 100 nmol/l and 1 μmol/l) in order to determine the agonistic efficacy. As a positive control of the reporter gene induction, the cells were treated with the synthetic gestagen promegestone (0.01 nmol/l, 0.1 nmol/l, 1 nmol/l, 10 nmol/l, 100 nmol/l and 1 μmol/l). To determine the antagonistic activity, the cells were treated with 0.1 nmol/l of promegestone and additionally with increasing amounts of the particular test compound (0.01 nmol/l, 0.1 nmol/l, 1 nmol/l, 10 nmol/l, 100 nmol/l and 1 μmol/l). The activity of the reporter gene LUC (LUC=luciferase) was determined in the cell lysates and measured as RLU (relative light units). All measurement values are given as percentage efficacy and as EC50 or IC50 concentrations.
row,pIC50,Structure (SMILES)
1,9.82,"CC(C)(C)OC(=O)N1CCN(Cc2ccc([C@H]3C[C@@]4(C)[C@@H](CC[C@@]4(O)C(F)(F)C(F)(F)F)[C@@H]4CCC5=CC(=O)CCC5=C43)cc2)CC1 [Example 3, tert-Butyl 4-{4-[(11β,17β)-17-hydroxy-3-oxo-17-(pentafluoroethyl)estra-4,9-dien-11-yl]benzyl}piperazine-1-carboxylate]"
2,8.55,"CN1CCN(Cc2ccc([C@H]3C[C@@]4(C)[C@@H](CC[C@@]4(O)C(F)(F)C(F)(F)F)[C@@H]4CCC5=CC(=O)CCC5=C43)cc2)CC1 [Example 2, (11β,17β)-17-Hydroxy-11-{4-[(4-methylpiperazin-1-yl)methyl]phenyl}-17-(pentafluoroethyl)estra-4,9-dien-3-one]"

# Molecular target: T2, human progesterone receptor A (Homo sapiens, UniProt P06401)
# T2 construct: expressed in transfected cells; host or cells: SK-N-MC human neuroblastoma cells, stably transfected with pRChPR-A-neo and pMMTV-LUC
# T2 sequence (P06401 1-769 isoform P06401-2): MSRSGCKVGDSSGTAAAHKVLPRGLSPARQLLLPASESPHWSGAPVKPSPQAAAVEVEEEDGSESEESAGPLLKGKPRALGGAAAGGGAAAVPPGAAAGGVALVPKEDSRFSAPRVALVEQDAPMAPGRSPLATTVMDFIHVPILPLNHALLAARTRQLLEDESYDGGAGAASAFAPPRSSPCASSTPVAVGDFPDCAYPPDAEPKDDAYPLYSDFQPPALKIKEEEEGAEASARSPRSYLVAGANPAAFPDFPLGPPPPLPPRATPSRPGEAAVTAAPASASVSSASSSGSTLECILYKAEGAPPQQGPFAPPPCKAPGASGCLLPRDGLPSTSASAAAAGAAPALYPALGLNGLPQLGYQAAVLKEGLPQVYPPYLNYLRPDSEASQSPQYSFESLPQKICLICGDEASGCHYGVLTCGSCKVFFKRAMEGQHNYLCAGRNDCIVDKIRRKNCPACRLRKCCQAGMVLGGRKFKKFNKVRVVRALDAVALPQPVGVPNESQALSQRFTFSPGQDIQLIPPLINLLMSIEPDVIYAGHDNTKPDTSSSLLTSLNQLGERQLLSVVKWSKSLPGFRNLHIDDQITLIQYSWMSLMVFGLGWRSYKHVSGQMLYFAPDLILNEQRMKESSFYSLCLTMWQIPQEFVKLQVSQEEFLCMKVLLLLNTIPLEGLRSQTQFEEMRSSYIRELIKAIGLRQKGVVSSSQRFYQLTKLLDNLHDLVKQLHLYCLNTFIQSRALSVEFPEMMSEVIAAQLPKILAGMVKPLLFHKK
# Assay: Progesterone receptor antagonistic effect in stably transfected SK-N-MC cells, MTV-LUC reporter (PR-A)
# Format: cell-based
# Conditions: antagonism of 0.1 nmol/l promegestone, luciferase reporter, 24 hours
# Procedure: as §1, §2
row,Structure (SMILES),pIC50
1,"CC(C)(C)OC(=O)N1CCN(Cc2ccc([C@H]3C[C@@]4(C)[C@@H](CC[C@@]4(O)C(F)(F)C(F)(F)F)[C@@H]4CCC5=CC(=O)CCC5=C43)cc2)CC1 [Example 3, tert-Butyl 4-{4-[(11β,17β)-17-hydroxy-3-oxo-17-(pentafluoroethyl)estra-4,9-dien-11-yl]benzyl}piperazine-1-carboxylate]",9.96
2,"C[C@]12C[C@H](c3ccc(CNc4cccc(C(N)=O)c4)cc3)C3=C4CCC(=O)C=C4CC[C@H]3[C@@H]1CC[C@@]2(O)C(F)(F)C(F)(F)F [Example 53, 3-({4-[(11β,17β)-17-Hydroxy-3-oxo-17-(pentafluoroethyl)estra-4,9-dien-11-yl]benzyl}amino)benzamide]",9.08
3,"C[C@]12C[C@H](c3ccc(CNc4ccc(C(N)=O)cc4)cc3)C3=C4CCC(=O)C=C4CC[C@H]3[C@@H]1CC[C@@]2(O)C(F)(F)C(F)(F)F [Example 32, 4-({4-[(11β,17β)-17-Hydroxy-3-oxo-17-(pentafluoroethyl)estra-4,9-dien-11-yl]benzyl}amino)benzamide]",9.11
4,"CN(CCc1ccccn1)Cc1ccc([C@H]2C[C@@]3(C)[C@@H](CC[C@@]3(O)C(F)(F)C(F)(F)F)[C@@H]3CCC4=CC(=O)CCC4=C32)cc1 [Example 52, (11β,17β)-17-Hydroxy-11-[4-({methyl[2-(pyridin-2-yl)ethyl]amino}methyl)phenyl]-17-(pentafluoroethyl)estra-4,9-dien-3-one]",8.19
5,"COC(=O)c1ccc(NCc2ccc([C@H]3C[C@@]4(C)[C@@H](CC[C@@]4(O)C(F)(F)C(F)(F)F)[C@@H]4CCC5=CC(=O)CCC5=C43)cc2)cc1 [Example 29, Methyl 4-({4-[(11β,17β)-17-hydroxy-3-oxo-17-(pentafluoroethyl)estra-4,9-dien-11-yl]benzyl}amino)benzoate]",8.92
6,"CN(CCc1ccccc1)Cc1ccc([C@H]2C[C@@]3(C)[C@@H](CC[C@@]3(O)C(F)(F)C(F)(F)F)[C@@H]3CCC4=CC(=O)CCC4=C32)cc1 [Example 33, (11β,17β)-17-Hydroxy-11-(4-{[methyl(2-phenylethyl)amino]methyl}phenyl)-17-(pentafluoroethyl)estra-4,9-dien-3-one]",8.25
7,"C[C@]12C[C@H](c3ccc(CNc4ccc(S(N)(=O)=O)cc4)cc3)C3=C4CCC(=O)C=C4CC[C@H]3[C@@H]1CC[C@@]2(O)C(F)(F)C(F)(F)F [Example 18, 4-({4-[(11β,17β)-17-Hydroxy-3-oxo-17-(pentafluoroethyl)estra-4,9-dien-11-yl]benzyl}amino)benzenesulphonamide]",9.29
8,"CC(=O)Nc1ccc(NCc2ccc([C@H]3C[C@@]4(C)[C@@H](CC[C@@]4(O)C(F)(F)C(F)(F)F)[C@@H]4CCC5=CC(=O)CCC5=C43)cc2)cc1 [Example 38, N-[4-({4-[(11β,17β)-17-Hydroxy-3-oxo-17-(pentafluoroethyl)estra-4,9-dien-11-yl]benzyl}amino)phenyl]acetamide]",9.18
9,"COc1ccccc1NCc1ccc([C@H]2C[C@@]3(C)[C@@H](CC[C@@]3(O)C(F)(F)C(F)(F)F)[C@@H]3CCC4=CC(=O)CCC4=C32)cc1 [Example 21, (11β,17β)-17-Hydroxy-11-(4-{[(2-methoxyphenyl)amino]methyl}phenyl)-17-(pentafluoroethyl)estra-4,9-dien-3-one]",8.22
10,"C[C@]12C[C@H](c3ccc(CNc4cccc(S(N)(=O)=O)c4)cc3)C3=C4CCC(=O)C=C4CC[C@H]3[C@@H]1CC[C@@]2(O)C(F)(F)C(F)(F)F [Example 40, 3-({4-[(11β,17β)-17-Hydroxy-3-oxo-17-(pentafluoroethyl)estra-4,9-dien-11-yl]benzyl}amino)benzenesulphonamide]",9.31

# Results, then the molecule that gave them:
row,pIC50,Structure (SMILES)
1,8.26,"C[C@]12C[C@H](c3ccc(CN4CCN(CCc5ccccc5)CC4)cc3)C3=C4CCC(=O)C=C4CC[C@H]3[C@@H]1CC[C@@]2(O)C(F)(F)C(F)(F)F [Example 34, (11β,17β)-17-Hydroxy-17-(pentafluoroethyl)-11-(4-{[4-(2-phenylethyl)piperazin-1-yl]methyl}phenyl)estra-4,9-dien-3-one]"
2,9.17,"C[C@]12C[C@H](c3ccc(CN4CCN(c5cnccn5)CC4)cc3)C3=C4CCC(=O)C=C4CC[C@H]3[C@@H]1CC[C@@]2(O)C(F)(F)C(F)(F)F [Example 35, (11β,17β)-17-Hydroxy-17-(pentafluoroethyl)-11-(4-{[4-(pyrazin-2-yl)piperazin-1-yl]methyl}phenyl)estra-4,9-dien-3-one]"
3,8.51,"C[C@]12C[C@H](c3ccc(CN4CCN(Cc5cccnc5)CC4)cc3)C3=C4CCC(=O)C=C4CC[C@H]3[C@@H]1CC[C@@]2(O)C(F)(F)C(F)(F)F [Example 44, (11β,17β)-17-Hydroxy-17-(pentafluoroethyl)-11-(4-{[4-(pyridin-3-ylmethyl)piperazin-1-yl]methyl}phenyl)estra-4,9-dien-3-one]"
4,8.92,"C[C@]12C[C@H](c3ccc(CN4CCN(c5ccncc5)CC4)cc3)C3=C4CCC(=O)C=C4CC[C@H]3[C@@H]1CC[C@@]2(O)C(F)(F)C(F)(F)F [Example 50, (11β,17β)-17-Hydroxy-17-(pentafluoroethyl)-11-(4-{[4-(pyridin-4-yl)piperazin-1-yl]methyl}phenyl)estra-4,9-dien-3-one]"
5,8.34,"C[C@]12C[C@H](c3ccc(CN4CCN(Cc5ccccc5)CC4)cc3)C3=C4CCC(=O)C=C4CCC3C1CC[C@@]2(O)C(F)(F)C(F)(F)F (stereo partly drawn) [Example 31, (11β,17β)-11-{4-[(4-Benzylpiperazin-1-yl)methyl]phenyl}-17-hydroxy-17-(pentafluoroethyl)estra-4,9-dien-3-one]"
6,7.19,"CN(C)CCN1CCN(Cc2ccc([C@H]3C[C@@]4(C)C(CC[C@@]4(O)C(F)(F)C(F)(F)F)C4CCC5=CC(=O)CCC5=C43)cc2)CC1 (stereo partly drawn) [Example 51, (11β,17β)-11-[4-({4-[2-(Dimethylamino)ethyl]piperazin-1-yl}methyl)phenyl]-17-hydroxy-17-(pentafluoroethyl)estra-4,9-dien-3-one]"
